Data from US20260070945A1, “MACROCYCLIC IMMUNOMODULATORS” (Bristol-Myers Squibb Company, priority 2022, published 2026).
Where a SMILES comes first, the peptide text is derived from it. Bridges are numbered along the chain shown (N, C = ends). [ ]: non-standard residue; d: D form. The star is where a group is joined. ξ: configuration not given here. Phe(3-CF3) = N[C@@H](Cc1cccc(C(F)(F)F)c1)C(=O)O; Phe(4-CONH2) = NC(=O)c1ccc(C[C@H](N)C(=O)O)cc1; Phe(4-COOH) = N[C@@H](Cc1ccc(C(=O)O)cc1)C(=O)O; Bip = N[C@@H](Cc1ccc(-c2ccccc2)cc1)C(=O)O; NH(CH2)14COOH = O=C(O)CCCCCCCCCCCCCCN*; Phe(3-Me) = Cc1cccc(C[C@H](N)C(=O)O)c1; NH(CH2)12COOH = O=C(O)CCCCCCCCCCCCN*; Val(3-OH) = CC(C)(O)[C@H](N)C(=O)O; 4Pal = N[C@@H](Cc1ccncc1)C(=O)O; 3Thi = N[C@@H](Cc1ccsc1)C(=O)O; Cha = N[C@@H](CC1CCCCC1)C(=O)O; Cit = NC(=O)NCCC[C@H](N)C(=O)O; Ile(3ξ) = CCC(C)[C@H](N)C(=O)O; Thr(3ξ) = CC(O)[C@H](N)C(=O)O; Carboxymethyl = O=C(O)C*; NMeA = CN[C@@H](C)C(=O)O; Aun = NCCCCCCCCCCC(=O)O; Dab = NCC[C@H](N)C(=O)O; AEEA = NCCOCCOCC(=O)O

Each compound was assayed against T1, PD-1/PD-L1 interaction (PE-labeled human PD-L1-Ig binding to Jurkat cell line over-expressing human PD-1) (Homo sapiens, UniProt Q15116) (assay: Jurkat-PD-1 Cell Binding High-Content Screening Assay (CBA)). Conditions: Jurkat-hPD-1 cells, PE-labeled PD-L1-Ig 20 nM final; read-out: Jurkat HPD1 PDL1 IC50.
T1 construct: expressed in transfected cells; host or cells: Jurkat
T1 sequence (Q15116 25-288): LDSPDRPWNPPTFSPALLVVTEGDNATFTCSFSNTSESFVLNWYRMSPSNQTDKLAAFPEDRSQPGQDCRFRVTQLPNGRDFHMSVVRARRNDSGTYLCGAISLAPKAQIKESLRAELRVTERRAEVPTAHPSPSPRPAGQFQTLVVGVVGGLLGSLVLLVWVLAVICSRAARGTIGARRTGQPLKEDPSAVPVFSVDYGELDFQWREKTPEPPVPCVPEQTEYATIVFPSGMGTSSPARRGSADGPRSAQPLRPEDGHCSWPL
Method in brief: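 Read-out: high-content imaging of cell-bound PE fluorescence, with Hoechst 33342 nuclear counterstain after paraformaldehyde fixation. Before labeled ligand (20 nM final, 1 h) was added, compound sat on the cells for 2 h at 37 °C in DMEM/10% FCS.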

**Q.** With CC(C)C[C@H]1NC(=O)[C@H](C)N(C)C(=O)[C@H](Cc2ccc(OCC(=O)O)cc2)NC(=O)[C@H](Cc2ccc(-c3ccccc3)cc2)NC(=O)[C@H](Cc2ccc(OCC(=O)O)cc2)NC(=O)[C@H](Cc2c[nH]c3ccccc23)NC(=O)[C@H](CC(=O)O)NC(=O)[C@H](Cc2ccc(OCC(=O)O)cc2)NC(=O)[C@H]([C@@H](C)O)NC(=O)CSC[C@@H](C(=O)N[C@@H](CCN)C(=O)NCCOCCOCC(=O)NCCCCCCCCCCC(=O)O)NC(=O)[C@H](CO)NC(=O)[C@H](C(C)C)NC(=O)[C@H](CC2CCCCC2)NC(=O)[C@H](CCN)NC1=O [Example 1391] ({CH2CO}-TY(Carboxymethyl)DWY(Carboxymethyl)[Bip]Y(Carboxymethyl)[NMeA][dL][Dab][Cha]VSC[Dab][AEEA][Aun]-OH; thioether N-14) as the compound, how does the IC50 read?
**A.** 25.8 nM

**Q.** Which IC50 does the source give for CC(C)C[C@@H]1NC(=O)[C@H](Cc2c[nH]c3ccccc23)NC(=O)[C@H](CC(=O)O)NC(=O)[C@H](Cc2ccc(C(=O)O)cc2)NC(=O)[C@H](Cc2ccc(OCC(=O)O)cc2)NC(=O)CSC[C@@H](C(=O)N[C@@H](CCN)C(=O)NCCOCCOCC(=O)NCCCCCCCCCCC(=O)O)NC(=O)[C@H](Cc2cnc[nH]2)NC(=O)[C@H](C(C)(C)O)NC(=O)[C@H](CC2CCCCC2)NC(=O)[C@H](CCN)NC(=O)[C@@H](CC(C)C)NC(=O)[C@H](C)N(C)C(=O)[C@H](C(C)C)NC(=O)[C@H](Cc2ccc(-c3ccccc3)cc2)NC1=O [Example 1129] ({CH2CO}-Y(Carboxymethyl)[Phe(4-COOH)]DWL[Bip]V[NMeA][dL][Dab][Cha][Val(3-OH)]HC[Dab][AEEA][Aun]-OH; thioether N-14) here?
**A.** 6.7 nM

**Q.** For CCC(C)[C@@H]1NC(=O)[C@H](Cc2ccc(-c3ccccc3)cc2)NC(=O)[C@H](C(C)C)NC(=O)[C@H](Cc2c[nH]c3ccccc23)NC(=O)[C@H](CC(=O)O)NC(=O)[C@H](Cc2ccc(OCC(=O)O)cc2)NC(=O)[C@H](Cc2ccncc2)NC(=O)CSC[C@@H](C(=O)N[C@@H](CCCCN)C(=O)NCCOCCOCC(=O)NCCCCCCCCCCC(=O)O)NC(=O)[C@H](C(C)O)NC(=O)[C@H](C(C)C)NC(=O)[C@H](CC2CCCCC2)NC(=O)[C@H](CCN)NC(=O)[C@@H](CC(C)C)NC(=O)[C@H](C)N(C)C1=O (stereo partly drawn) [Example 2105] ({CH2CO}-[4Pal]Y(Carboxymethyl)DWV[Bip][Ile(3ξ)][NMeA][dL][Dab][Cha]V[Thr(3ξ)]CK[AEEA][Aun]-OH; thioether N-14), which IC50 is on record?
**A.** 15 nM

**Q.** Cc1cccc(C[C@@H]2NC(=O)[C@H](CC(=O)O)NC(=O)[C@H](Cc3ccc(C(=O)O)cc3)NC(=O)[C@H](Cc3ccc(OCC(=O)O)cc3)NC(=O)CSC[C@@H](C(=O)N[C@@H](CCN)C(=O)NCCOCCOCC(=O)NCCOCCOCC(=O)NCCCCCCCCCCCCC(=O)O)NC(=O)[C@H](CO)NC(=O)[C@H](C(C)(C)O)NC(=O)[C@H](CC3CCCCC3)NC(=O)[C@H](CCN)NC(=O)[C@@H](CC(C)C)NC(=O)[C@H](C)N(C)C(=O)[C@H](CCC(N)=O)NC(=O)[C@H](Cc3ccc(-c4ccccc4)cc3)NC(=O)[C@H](Cc3ccc(C(=O)O)cc3)NC2=O)c1 [Example 1105] ({CH2CO}-Y(Carboxymethyl)[Phe(4-COOH)]D[Phe(3-Me)][Phe(4-COOH)][Bip]Q[NMeA][dL][Dab][Cha][Val(3-OH)]SC[Dab][AEEA][AEEA]-{NH(CH2)12COOH}; thioether N-14) was tested. Which IC50 did it give?
**A.** 7.2 nM

**Q.** Cc1cccc(C[C@@H]2NC(=O)[C@H](CC(=O)O)NC(=O)[C@H](Cc3ccc(OCC(=O)O)cc3)NC(=O)[C@H](C(C)O)NC(=O)CSC[C@@H](C(=O)N[C@@H](CCN)C(=O)NCCCCCCCCCCC(=O)O)NC(=O)[C@H](C(C)O)NC(=O)[C@H](C(C)C)NC(=O)[C@H](CC3CCCCC3)NC(=O)[C@H](CCN)NC(=O)[C@@H](CC(C)C)NC(=O)[C@H](C)N(C)C(=O)[C@H](Cc3ccc(OCC(=O)O)cc3)NC(=O)[C@H](Cc3ccc(-c4ccccc4)cc3)NC(=O)[C@H](CCCNC(N)=O)NC2=O)c1 (stereo partly drawn) [Example 2354] ({CH2CO}-[Thr(3ξ)]Y(Carboxymethyl)D[Phe(3-Me)][Cit][Bip]Y(Carboxymethyl)[NMeA][dL][Dab][Cha]V[Thr(3ξ)]C[Dab][Aun]-OH; thioether N-14) was tested. Which IC50 did it give?
**A.** 21.4 nM

**Q.** With CC(C)C[C@@H]1NC(=O)[C@H](Cc2c[nH]c3ccccc23)NC(=O)[C@H](CC(=O)O)NC(=O)[C@H](Cc2ccc(C(=O)O)cc2)NC(=O)[C@H](Cc2ccc(OCC(=O)O)cc2)NC(=O)CSC[C@@H](C(=O)NCC(=O)N[C@@H](CCC(=O)O)C(=O)NCC(=O)NCCCCCCCCCCC(=O)O)NC(=O)[C@H](CO)NC(=O)[C@H](C(C)C)NC(=O)[C@H](CC2CCCCC2)NC(=O)[C@H](CCN)NC(=O)[C@@H](CC(C)C)NC(=O)[C@H](C)N(C)C(=O)[C@H](C(C)C)NC(=O)[C@H](Cc2ccc(-c3ccccc3)cc2)NC1=O [Example 1032] ({CH2CO}-Y(Carboxymethyl)[Phe(4-COOH)]DWL[Bip]V[NMeA][dL][Dab][Cha]VSCGEG[Aun]-OH; thioether N-14) as the compound, how does the IC50 read?
**A.** 15.9 nM

**Q.** With CC(C)C[C@@H]1NC(=O)[C@H](Cc2c[nH]c3ccccc23)NC(=O)[C@H](CC(=O)O)NC(=O)[C@H](Cc2ccncc2)NC(=O)[C@H](Cc2ccc(OCC(=O)O)cc2)NC(=O)CSC[C@@H](C(=O)N[C@@H](CCCCN)C(=O)NCCCCCCCCCCC(=O)O)NC(=O)[C@H](CO)NC(=O)[C@H](C(C)C)NC(=O)[C@H](CC2CCCCC2)NC(=O)[C@H](CCN)NC(=O)[C@@H](CC(C)C)NC(=O)[C@H](C)N(C)C(=O)[C@H](C(C)C)NC(=O)[C@H](Cc2ccc(-c3ccccc3)cc2)NC1=O [Example 1085] ({CH2CO}-Y(Carboxymethyl)[4Pal]DWL[Bip]V[NMeA][dL][Dab][Cha]VSCK[Aun]-OH; thioether N-14) as the compound, how does the IC50 read?
**A.** 15.4 nM

Same assay, conditions: PE-labeled PD-L1-Ig 20 nM final, Jurkat-hPD-1 cells; read-out: Jurkat HPD1 PDL1 IC50

**Q.** Which IC50 does the source give for Cc1cccc(C[C@@H]2NC(=O)[C@H](CC(=O)O)NC(=O)[C@H](Cc3ccc(OCC(=O)O)cc3)NC(=O)[C@H](CCN)NC(=O)CSC[C@@H](C(=O)N[C@@H](CCN)C(=O)NCCOCCOCC(=O)NCCOCCOCC(=O)NCCCCCCCCCCC(=O)O)NC(=O)[C@H](CCC(=O)O)NC(=O)[C@H](C(C)(C)O)NC(=O)[C@H](CC3CCCCC3)NC(=O)[C@H](CCN)NC(=O)[C@@H](CC(C)C)NC(=O)[C@H](C)N(C)C(=O)[C@H](Cc3ccc(C(=O)O)cc3)NC(=O)[C@H](Cc3ccc(-c4ccccc4)cc3)NC(=O)[C@H](Cc3ccc(C(=O)O)cc3)NC2=O)c1 [Example 2518] ({CH2CO}-[Dab]Y(Carboxymethyl)D[Phe(3-Me)][Phe(4-COOH)][Bip][Phe(4-COOH)][NMeA][dL][Dab][Cha][Val(3-OH)]EC[Dab][AEEA][AEEA][Aun]-OH; thioether N-14) here?
**A.** 14.3 nM

**Q.** For CC(=O)NCCCC[C@@H]1NC(=O)[C@H](C(C)(C)O)NC(=O)[C@H](CC2CCCCC2)NC(=O)[C@H](CCN)NC(=O)[C@@H](CC(C)C)NC(=O)[C@H](C)N(C)C(=O)[C@H](CCCNC(N)=O)NC(=O)[C@H](Cc2ccc(-c3ccccc3)cc2)NC(=O)[C@H](Cc2ccc(OCC(=O)O)cc2)NC(=O)[C@H](Cc2cccc(C(F)(F)F)c2)NC(=O)[C@H](CC(=O)O)NC(=O)[C@H](Cc2ccc(OCC(=O)O)cc2)NC(=O)[C@H](CCN)NC(=O)CSC[C@@H](C(=O)N[C@@H](CCN)C(=O)NCCCCCCCCCCCCCCC(=O)O)NC1=O [Example 2623] ({CH2CO}-[Dab]Y(Carboxymethyl)D[Phe(3-CF3)]Y(Carboxymethyl)[Bip][Cit][NMeA][dL][Dab][Cha][Val(3-OH)]K(Ac)C[Dab]-{NH(CH2)14COOH}; thioether N-14), which IC50 is on record?
**A.** 99.4 nM

**Q.** With Cc1cccc(C[C@@H]2NC(=O)[C@H](CC(=O)O)NC(=O)[C@H](Cc3ccc(C(=O)O)cc3)NC(=O)[C@H](CCN)NC(=O)CSC[C@@H](C(=O)N[C@@H](CCN)C(=O)NCCCCCCCCCCC(=O)O)NC(=O)[C@H](Cc3cnc[nH]3)NC(=O)[C@H](C(C)(C)O)NC(=O)[C@H](CC3CCCCC3)NC(=O)[C@H](CCN)NC(=O)[C@@H](CC(C)C)NC(=O)[C@H](C)N(C)C(=O)[C@H](Cc3ccc(C(=O)O)cc3)NC(=O)[C@H](Cc3ccc(-c4ccccc4)cc3)NC(=O)[C@H](Cc3ccc(C(=O)O)cc3)NC2=O)c1 [Example 2554] ({CH2CO}-[Dab][Phe(4-COOH)]D[Phe(3-Me)][Phe(4-COOH)][Bip][Phe(4-COOH)][NMeA][dL][Dab][Cha][Val(3-OH)]HC[Dab][Aun]-OH; thioether N-14) as the compound, how does the IC50 read?
**A.** 8.6 nM

**Q.** For Cc1cccc(C[C@@H]2NC(=O)[C@H](CC(=O)O)NC(=O)[C@H](Cc3ccc(C(=O)O)cc3)NC(=O)[C@H](Cc3ccsc3)NC(=O)CSC[C@@H](C(=O)N[C@@H](CCN)C(=O)NCCOCCOCC(=O)NCCOCCOCC(=O)NCCCCCCCCCCC(=O)O)NC(=O)[C@H](CCC(=O)O)NC(=O)[C@H](C(C)(C)O)NC(=O)[C@H](CC3CCCCC3)NC(=O)[C@H](CCN)NC(=O)[C@@H](CC(C)C)NC(=O)[C@H](C)N(C)C(=O)[C@H](Cc3ccc(OCC(=O)O)cc3)NC(=O)[C@H](Cc3ccc(-c4ccccc4)cc3)NC(=O)[C@H](Cc3ccc(OCC(=O)O)cc3)NC2=O)c1 [Example 2500] ({CH2CO}-[3Thi][Phe(4-COOH)]D[Phe(3-Me)]Y(Carboxymethyl)[Bip]Y(Carboxymethyl)[NMeA][dL][Dab][Cha][Val(3-OH)]EC[Dab][AEEA][AEEA][Aun]-OH; thioether N-14), which IC50 is on record?
**A.** 19.5 nM

**Q.** Which IC50 does the source give for CC(=O)NCCCC[C@@H]1NC(=O)[C@H](C(C)(C)O)NC(=O)[C@H](CC2CCCCC2)NC(=O)[C@H](CCN)NC(=O)[C@@H](CC(C)C)NC(=O)[C@H](C)N(C)C(=O)[C@H](CCC(=O)O)NC(=O)[C@H](Cc2ccc(-c3ccccc3)cc2)NC(=O)[C@H](Cc2ccc(C(N)=O)cc2)NC(=O)[C@H](Cc2cccc(C)c2)NC(=O)[C@H](CC(=O)O)NC(=O)[C@H](Cc2ccc(C(=O)O)cc2)NC(=O)[C@H](Cc2ccc(OCC(=O)O)cc2)NC(=O)CSC[C@@H](C(=O)N[C@@H](CCN)C(=O)NCCOCCOCC(=O)NCCOCCOCC(=O)NCCCCCCCCCCC(=O)O)NC1=O [Example 2533] ({CH2CO}-Y(Carboxymethyl)[Phe(4-COOH)]D[Phe(3-Me)][Phe(4-CONH2)][Bip]E[NMeA][dL][Dab][Cha][Val(3-OH)]K(Ac)C[Dab][AEEA][AEEA][Aun]-OH; thioether N-14) here?
**A.** 2.3 nM
